Values of other authors, collected in the CATMoS acute toxicity set (Mansouri et al. 2021).

Assay: rat acute oral toxicity
Details: in vivo

| SMILES | LD50 [mg/kg] |
| --- | --- |
| COc1ccccc1OC(=O)CNC(=O)Cc1ccc(C(=O)c2ccc(C)cc2)n1C | 1450 |
| CNNCc1ccc(C(=O)NC(C)C)cc1 | 570 |
| CCCCNC(=O)NS(=O)(=O)c1ccc(C)cc1 | 2490 |
| CC(C)(C(=O)O)S(C)(=O)=O | 5700 |
| CC(C)CC(CCN(C(C)C)C(C)C)(C(N)=O)c1ccccn1 (stereo not drawn) | 1100 |
| CC(C)Oc1cccc(C2CC(=O)NC2=O)c1 (stereo not drawn) | 2400 |
| Cc1nc2n(c(=O)c1CCN1CCC(c3noc4cc(F)ccc34)CC1)CCC[C@H]2O | 65 |
| CCCCCCCC/C=C\CCCCCCCC[N+](C)(C)CC | 500 |
| CCC(C)(C)OC(=O)Nc1ccco1 | 190 |
| N[C@@H](Cc1ccc(O)c(O)c1)C(=O)O | 1780 |
| CCCOP(=S)(CCl)Sc1ccc(Cl)cc1 (stereo not drawn) | 80 |
| CC(C)(S)[C@@H](N)C(=O)O | 6170 |
| C=CCOc1ccccc1C(=O)NC1CCCCC1 | 1200 |
| CC1(C)CNC(=NN=C(/C=C/c2ccc(C(F)(F)F)cc2)/C=C/c2ccc(C(F)(F)F)cc2)NC1 | 1130 |
| C/C=C/C(=O)OCC | 3000 |
| CCC(c1ccccc1)c1noc(CCN(CC)CC)n1 (stereo not drawn) | 1400 |
| C=C(F)C(=O)OCC(F)(F)C(F)F | 60 |
| O=Cc1ccc(CO)o1 | 2500 |
| Cc1ccc(B2OCC3(CO2)COB(c2ccc(C)cc2)OC3)cc1 | 1130 |
| c1ccc(C2(c3ccccc3)COC(c3ccccc3)(C3CCCCN3)OC2)cc1 (stereo not drawn) | 300 |
| CC(O)COC[C@H]1O[C@@H](O)[C@H](OCC(C)O)[C@@H](OCC(C)O)[C@@H]1O (stereo partly drawn) | 10200 |
| COc1ccc(C[C@H]2NC[C@H](O)[C@H]2OC(C)=O)cc1 | 72 |
| CCCCCCCC/C=C\CCCCCCCC(=O)NCC[N+]1(C)CCN=C1CCCCCCC/C=C\CCCCCCCC (stereo not drawn) | 24400 |
| NCCNCCO | 3000 |
| COC(C)CO (stereo not drawn) | 5710 |

| SMILES | LD50 [mg/kg] |
| --- | --- |
| O=C(O)CCc1nc2ccccc2[nH]1 | 1700 |
| CCC[N+](=O)[O-] | 455 |
| CC(C)(C)c1ccc2nc(C(F)(F)F)[nH]c2c1 | 35 |
| COC(=O)c1c(Cl)c(Cl)c(C(=O)N(C)OC)c(Cl)c1Cl | 1170 |
| Cc1ccc(C2(O)CCN(CCCC(=O)c3ccc(F)cc3)CC2)cc1 | 152 |
| CS(=O)(=O)c1ccc(Cl)cc1 | 400 |
| O=C(NP(=O)(N1CC1)N1CC1)c1ccccc1 | 50 |
| O=COCC=Cc1ccccc1 | 2900 |
| CN1CCN(C2=Nc3ccccc3Cc3ccccc32)CC1 | 660 |
| CC1=[N+](C)C2CCC1(c1ccccc1)c1ccccc12 (stereo not drawn) | 707 |
| COP(=S)(OC)Oc1ccc([N+](=O)[O-])c(C(F)(F)F)c1 | 250 |
| O=c1n(CC2CO2)c(=O)n(CC2CO2)n1CC1CO1 (stereo not drawn) | 250 |
| CCCCCCOC(=O)CC#N | 6440 |
| Cn1c(=O)sc2cccc(Cl)c21 | 1940 |
| CN1CCN(C2=Nc3cc(Cl)ccc3Nc3ccccc32)CC1 | 251 |
| C=CCN(CC=C)C(=O)CCl | 700 |
| CCCCOC(=O)N(C)SN(C)C(=O)Oc1cccc2c1OC(C)(C)C2 | 53 |
| O=CC1C(=O)N(c2ccccc2)N=C1c1ccccc1 (stereo not drawn) | 789 |
| COc1ccc2oc(N)nc2c1 | 1000 |
| CCN(CC)CC#N | 160 |
| Cc1ccc2c(c1)C(N1CCN(C)CC1)=Nc1ccccc1S2 | 934 |
| O=CC(Cl)CCl (stereo not drawn) | 160 |
| C[N+]1(C)CCCC(OC(=O)C(O)(c2ccccc2)c2ccccc2)C1 (stereo not drawn) | 742 |
| Nc1ccc(CCNCC(O)c2ccccc2)cc1 (stereo not drawn) | 200 |
| Cc1ccccc1-n1c(CF)nc2ccc(N)cc2c1=O | 249 |

| SMILES | LD50 [mg/kg] |
| --- | --- |
| CC(O)Cn1cnc2c1c(=O)n(C)c(=O)n2C (stereo not drawn) | 460 |
| CC(Cl)CCl (stereo not drawn) | 1950 |
| NS(=O)(=O)c1cc2c(cc1Cl)CN(C1CCCCC1)C2=O | 6000 |
| OCC1OC(n2cnc3c(S)ncnc32)C(O)C1O (stereo not drawn) | 900 |
| COC(=O)[C@H]1[C@H]2C[C@@H]3c4[nH]c5cc(OC)ccc5c4CCN3C[C@H]2C[C@@H](OC(=O)c2cc(OC)c(OC)c(OC)c2)[C@@H]1OC | 420 |
| O=C(NCCO)c1ccccc1O | 4300 |
| CCCCC(CC)COC(C[n+]1ccccc1)c1cccc(Cl)c1 (stereo not drawn) | 250 |
| O=C(CCl)OCCOCCO | 770 |
| CC(=O)SCc1cnc(C)c(O)c1CSC(C)=O | 870 |
| ClC1=C(Cl)[C@]2(Cl)[C@H]3[C@H]([C@@H]4O[C@]4(Cl)[C@@H]3Cl)[C@@]1(Cl)C2(Cl)Cl (racemic) | 457 |
| Cc1c(Nc2ccccc2C(=O)O)ccc(O)c1Cl | 1850 |
| CCC(C)(C)c1ccc(Cl)c(OC(=O)NC)c1 | 75 |
| Clc1cccc(Cl)c1Nc1ncccn1 | 4720 |
| COc1ccc(Nc2ccc(OC)cc2)cc1 | 2470 |
| CCC(=O)c1ccc(N)cc1 | 177 |
| COC1=CC=C2[C@H]3Cc4ccc(OC)c5c4[C@@]2(CCN3C)[C@H]1O5 | 114 |
| C=CC(C)(CCC=C(C)C)OC(=O)C=Cc1ccccc1 (stereo not drawn) | 9960 |
| C=CC[N+]1(CCC(C)CCCC(C)C)CCCCC1 (stereo not drawn) | 360 |
| NCCCC1(CCCN)c2ccccc2-c2ccccc21 | 620 |
| OCC(F)(F)C(F)(F)C(F)(F)CO | 1780 |
| COP(=S)(OC)SCSc1ccc(Cl)cc1 | 48 |
| CCN1CCCC1CNC(=O)c1cc(Cl)cc(Cl)c1OCc1ccccc1 (stereo not drawn) | 576 |
| Cc1onc(-c2c(Cl)cccc2Cl)c1C(=O)N[C@@H]1C(=O)N2[C@@H]1SC(C)(C)[C@@H]2C(=O)O | 3580 |
